Data: ChEMBL document CHEMBL5620344, “Discovery of novel 5-(2-hydroxyphenyl)-2-phthalide-3(3H)-pyrazolones as balanced multifunctional agents against Alzheimer's disease” (Eur J Med Chem, 2023)
Active and inactive are the calls of the source. The calls are words filed in the database; no cut-off is given here.

Columns and labels:
BV-2 [1] = assay: Anti-neuroinflammatory activity against LPS-stimulated mouse BV-2 cells assessed as inhibition of NO release at 0.5 uM incubated for 24 hrs by Griess reagent based assay; type: functional
[2] = target: Amyloid-beta precursor protein (Homo sapiens) (UniProt P05067); assay: Inhibition of Cu2+-induced amyloid beta (1 to 42) (unknown origin) aggregation at 25 uM by ThT fluorescence assay
Chain of Amyloid-beta precursor protein (Homo sapiens) (P05067 whole entry): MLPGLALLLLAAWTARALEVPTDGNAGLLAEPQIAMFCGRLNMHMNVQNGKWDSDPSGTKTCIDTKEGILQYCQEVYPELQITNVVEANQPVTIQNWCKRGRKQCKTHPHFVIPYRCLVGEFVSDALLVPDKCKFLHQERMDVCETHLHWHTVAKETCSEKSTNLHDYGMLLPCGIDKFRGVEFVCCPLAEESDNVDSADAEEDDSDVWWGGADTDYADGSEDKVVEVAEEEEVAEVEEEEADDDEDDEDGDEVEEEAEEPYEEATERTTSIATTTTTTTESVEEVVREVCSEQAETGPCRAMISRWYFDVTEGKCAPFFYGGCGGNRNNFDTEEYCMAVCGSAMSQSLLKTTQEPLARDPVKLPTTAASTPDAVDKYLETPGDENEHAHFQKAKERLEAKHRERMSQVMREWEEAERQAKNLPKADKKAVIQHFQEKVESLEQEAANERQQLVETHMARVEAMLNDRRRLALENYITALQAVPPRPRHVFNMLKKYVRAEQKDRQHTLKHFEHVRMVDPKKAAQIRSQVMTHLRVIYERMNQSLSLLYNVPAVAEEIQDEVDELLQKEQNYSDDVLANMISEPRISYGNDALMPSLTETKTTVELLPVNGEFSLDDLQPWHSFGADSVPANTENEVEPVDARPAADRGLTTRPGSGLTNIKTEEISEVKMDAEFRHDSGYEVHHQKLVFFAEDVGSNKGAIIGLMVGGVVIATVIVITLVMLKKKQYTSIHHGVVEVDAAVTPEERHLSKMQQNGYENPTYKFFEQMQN

BV-2 [3] = assay: Anti-neuroinflammatory activity against LPS-stimulated mouse BV-2 cells assessed as inhibition of NO release at 2.5 uM incubated for 24 hrs by Griess reagent based assay; type: functional
[4] = Antioxidant activity assessed as inhibition of Cu2+-induced ROS production by measuring decrease in fluorescence intensity in presence of Cu2+ and ascorbate by CCA-dye based fluorescence analysis; type: functional
[5] = Tmax in BALB/c mouse plasma at 30 mg/kg, ig; type: ADME, organism-based; conditions: po
[6] = Cmax in BALB/c mouse plasma at 30 mg/kg, ig; type: ADME, organism-based; conditions: po
Mus musculus [7] = assay: Anti-inflammatory activity against amyloid beta (1 to 42)-induced alzheimer's disease mouse model assessed as decrease in TNF-alpha content in hippocampus at 8 to 32 mg/kg and measured on day 6; type: functional, organism-based; conditions: dose 8-32 mg/kg, time 6.0 day
[8] = target: T1, Amine oxidase [flavin-containing] B (Homo sapiens, UniProt P27338); assay: Inhibition of human recombinant MAO-B
T1 sequence (P27338 whole entry): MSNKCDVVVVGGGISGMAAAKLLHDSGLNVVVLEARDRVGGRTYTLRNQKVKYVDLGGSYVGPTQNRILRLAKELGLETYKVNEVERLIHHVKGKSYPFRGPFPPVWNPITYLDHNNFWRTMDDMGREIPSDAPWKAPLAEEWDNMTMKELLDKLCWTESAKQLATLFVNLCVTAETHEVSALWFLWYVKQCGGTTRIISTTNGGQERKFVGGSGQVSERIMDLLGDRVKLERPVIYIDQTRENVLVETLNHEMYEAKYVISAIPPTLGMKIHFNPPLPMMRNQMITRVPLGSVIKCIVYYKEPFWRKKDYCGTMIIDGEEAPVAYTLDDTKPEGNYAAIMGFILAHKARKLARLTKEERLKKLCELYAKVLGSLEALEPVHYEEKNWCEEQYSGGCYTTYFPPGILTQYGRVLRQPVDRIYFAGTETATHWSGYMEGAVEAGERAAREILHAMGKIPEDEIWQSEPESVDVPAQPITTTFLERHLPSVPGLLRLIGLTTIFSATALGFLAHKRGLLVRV

Mus musculus [9] = assay: Antialzheimer activity against amyloid beta (1-42)-induced alzheimer's disease mouse model assessed as decrease in cognitive impairment by measuring decrease in escape latency time during training phase at 8 to 32 mg/kg and measured for 5 days by Morris water maze test; type: functional, organism-based; conditions: dose 8-32 mg/kg, time 5.0 day
[10] = Tmax in BALB/c mouse brain at 30 mg/kg, ig; type: ADME, organism-based; conditions: po
[11] = Metal chelating activity assessed as compound-Cu2+ complex formation by measuring red shift of absorption peak with declined absorption at 37.5 uM in presence of CuCl2 by UV-Vis spectrometry
Mus musculus [12] = assay: Anti-oxidative stress against amyloid beta (1-42)-induced alzheimer's disease mouse model assessed as increase in SOD activity in hippocampus at 8 to 32 mg/kg and measured on day 6; type: functional, organism-based; conditions: dose 8-32 mg/kg, time 6.0 day
[13] = Metal chelating activity assessed as compound-Cu2+ complex formation at stoichiometric ratio of 1:1 in presence of CuCl2 by UV-Vis spectroscopy
[14] = target: Amyloid-beta precursor protein (Homo sapiens) (UniProt P05067); assay: Inhibition of Cu2+-induced amyloid beta (1 to 42) (unknown origin) aggregation assessed as fewer amyloid beta (1 to 42) fibrils formation incubated for 24 hrs by transmission electron microscopy
[15] = Metal chelating activity assessed as compound-Al3+ complex formation by measuring blue shift of maximum absorption peak at 37.5 uM in presence of AlCl3 by UV-Vis spectrometry
[16] = Metal chelating activity assessed as compound-Fe3+ complex formation by measuring blue shift of maximum absorption peak at 37.5 uM in presence of FeCl3 by UV-Vis spectrometry
[17] = Permeability of the compound at 100 ug/ml by PAMPA-BBB assay; type: ADME; conditions: dose 100 µg/ml, read-out: permeability
[18] = Antioxidant activity assessed as trolox equivalent of ORAC radical scavenging activity by ORAC-FL assay relative to trolox; type: functional
[19] = Selectivity index, ratio of IC50 for human recombinant MAO-A to IC50 for human recombinant MAO-B
MAO-A = target: T2, MAO-A (Homo sapiens, UniProt P21397); assay: Inhibition of human recombinant MAO-A at 10 uM
T2 sequence (P21397 whole entry): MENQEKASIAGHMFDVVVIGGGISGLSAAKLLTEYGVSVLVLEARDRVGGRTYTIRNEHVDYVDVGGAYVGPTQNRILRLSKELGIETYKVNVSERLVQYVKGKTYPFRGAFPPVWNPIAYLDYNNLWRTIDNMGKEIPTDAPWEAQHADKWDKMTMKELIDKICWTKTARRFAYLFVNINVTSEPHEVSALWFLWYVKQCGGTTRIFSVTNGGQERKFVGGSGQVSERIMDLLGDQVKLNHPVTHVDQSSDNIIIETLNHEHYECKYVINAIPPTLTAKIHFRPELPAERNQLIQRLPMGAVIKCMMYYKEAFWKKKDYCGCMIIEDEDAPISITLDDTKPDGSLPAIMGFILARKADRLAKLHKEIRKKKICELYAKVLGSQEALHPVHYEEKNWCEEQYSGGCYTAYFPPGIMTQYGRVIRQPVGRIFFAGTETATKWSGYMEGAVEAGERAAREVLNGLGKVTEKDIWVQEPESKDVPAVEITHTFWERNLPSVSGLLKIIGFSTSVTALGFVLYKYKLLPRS

[20] = target: Amyloid-beta precursor protein (Homo sapiens) (UniProt P05067); assay: Inhibition of self-induced amyloid beta (1 to 42) (unknown origin) aggregation assessed as short and thin fibrils incubated for 24 hrs by transmission electron microscopy
[21] = Ratio of AUC in brain to plasma in BALB/c at 30 mg/kg, ig; type: ADME, organism-based; conditions: mouse, po
[22] = target: Amyloid-beta precursor protein (Homo sapiens) (UniProt P05067); assay: Inhibition of self-induced amyloid beta (1 to 42) (unknown origin) aggregation at 25 uM by ThT fluorescence assay
Mus musculus [23] = assay: Antialzheimer activity against amyloid beta (1-42)-induced alzheimer's disease mouse model assessed as decrease in cognitive impairment by measuring increase in number of crossing the target area in spatial probe trial at 8 to 32 mg/kg and measured on day 6 by Morris water maze test; type: functional, organism-based; conditions: dose 8-32 mg/kg, time 6.0 day
PC-12 [24] = assay: Neuroprotective activity against H2O2-induced cytotoxicity in rat PC12 cells assessed as cell viability at 10 uM by MTT assay (reference value: 54.9%); type: functional; conditions: read-out: Activity
[25] = target: Amyloid-beta precursor protein (Homo sapiens) (UniProt P05067); assay: Inhibition of self-induced amyloid beta (1 to 42) (unknown origin) aggregation assessed as decrease in number of aggregates formed incubated for 24 hrs by transmission electron microscopy
PC-12 [26] = assay: Neuroprotective activity against H2O2-induced cytotoxicity in rat PC12 cells assessed as cell viability at 1 uM by MTT assay (reference value: 54.9%); type: functional; conditions: read-out: Activity

Structure (SMILES): CCCCCCCC1OC(=O)c2cc(N3N=C(c4cc(Cl)ccc4O)CC3=O)ccc21 (configuration not stated)
- inhibition at 0.5 µM (BV-2 [1]): 25.9%
- inhibition [2]: 57.5%
- inhibition at 2.5 µM (BV-2 [3]): 37.9%
- Activity [4]: Active
- Tmax [5]: 30 min
- Cmax [6]: 1540 ng/mL
- Activity (Mus musculus [7]): Active
- IC50 [8]: 410 nM
- Activity (Mus musculus [9]): Active
- Tmax [10]: 60 min
- Activity [11]: Active
- Activity (Mus musculus [12]): Dose-Dependent Effect
- Activity [13]: Active
- inhibition [14]: Active
- Activity [15]: Active
- Activity [16]: Active
- Papp at 100 ug/ml [17]: 6.37 ×10⁻⁶ cm/s
- Ratio [18]: 1.16 equiv
- Ratio IC50 [19]: > 24.4
- inhibition at 10 µM (MAO-A): 32.6%
- inhibition [20]: Active
- Kp [21]: 0.69
- inhibition [22]: 56%
- Activity (Mus musculus [23]): Active
- viability at 10 µM (PC-12 [24]): 77.7%
- inhibition [25]: Active
- viability at 1 µM (PC-12 [26]): 66.9%
